Assay: xn = mol fraction of the nth substance listed
Conditions: 100 kPa

C[NH2+]CCC=C1c2ccccc2CCc2ccccc21.[Cl-] + CCCC[n+]1ccn(C)c1.[Br-] + O
viscosity [mPa·s]
Conditions | 288.15 K | 298.15 K | 308.15 K | 318.15 K
x1 = 0.0001975, x2 = 0.0001801 | 1.159 | 0.927 | 0.763 | 0.646
x1 = 0.0002159, x2 = 0.00126 | 1.172 | 0.944 | 0.778 | 0.661
x1 = 0.0002212, x2 = 0.0007201 | 1.165 | 0.934 | 0.77 | 0.654
x1 = 0.0005439, x2 = 0.0001801 | 1.169 | 0.936 | 0.771 | 0.655
x1 = 0.0005594, x2 = 0.001259 | 1.182 | 0.953 | 0.787 | 0.671
x1 = 0.0005644, x2 = 0.0007199 | 1.176 | 0.943 | 0.779 | 0.664
x1 = 0.0009069, x2 = 0.0007196 | 1.187 | 0.952 | 0.788 | 0.674
x1 = 0.0009097, x2 = 0.00018 | 1.18 | 0.946 | 0.78 | 0.664
x1 = 0.0009344, x2 = 0.001259 | 1.193 | 0.963 | 0.796 | 0.68
x1 = 0.001275, x2 = 0.001258 | 1.204 | 0.973 | 0.805 | 0.689
x1 = 0.001278, x2 = 0.0001799 | 1.192 | 0.956 | 0.789 | 0.673
x1 = 0.001293, x2 = 0.0007194 | 1.199 | 0.961 | 0.797 | 0.682
x1 = 0.001648, x2 = 0.0007191 | 1.211 | 0.971 | 0.806 | 0.691
x1 = 0.001659, x2 = 0.0001799 | 1.204 | 0.967 | 0.798 | 0.681
x1 = 0.001665, x2 = 0.001258 | 1.216 | 0.984 | 0.814 | 0.698
x1 = 0.002, x2 = 0.0001798 | 1.217 | 0.978 | 0.807 | 0.689
x1 = 0.002031, x2 = 0.0007188 | 1.224 | 0.982 | 0.815 | 0.699
x1 = 0.002035, x2 = 0.001257 | 1.229 | 0.995 | 0.823 | 0.707
x1 = 0.002363, x2 = 0.0001797 | 1.23 | 0.989 | 0.816 | 0.697
x1 = 0.002378, x2 = 0.001257 | 1.243 | 1.006 | 0.832 | 0.715
x1 = 0.002383, x2 = 0.0007186 | 1.237 | 0.993 | 0.824 | 0.707
x1 = 0.002737, x2 = 0.0001797 | 1.244 | 1 | 0.826 | 0.705
x1 = 0.00275, x2 = 0.001256 | 1.257 | 1.018 | 0.842 | 0.723
x1 = 0.002759, x2 = 0.0007183 | 1.251 | 1.005 | 0.834 | 0.715
x1 = 0.003096, x2 = 0.001256 | 1.272 | 1.03 | 0.853 | 0.731
x1 = 0.003103, x2 = 0.0001796 | 1.258 | 1.012 | 0.836 | 0.713
x1 = 0.00311, x2 = 0.000718 | 1.265 | 1.019 | 0.845 | 0.723
x1 = 0.003471, x2 = 0.0001795 | 1.273 | 1.024 | 0.847 | 0.721
x1 = 0.003493, x2 = 0.001255 | 1.287 | 1.043 | 0.864 | 0.738
x1 = 0.003504, x2 = 0.0007178 | 1.28 | 1.033 | 0.856 | 0.731

From the CheMixHub ionic liquid set
